According to patent US9890166B2, “Imidazopyrrolidine derivatives and their use in the treatment of disease” (NOVARTIS AG, priority 2013, dated 2018):
pIC50: −log10 of the molar value.

Tests used:
[1] = biological target: BRD2 (His-Brd2(60-472)) (Homo sapiens (Human), UniProt P25440); test: TR-FRET in-vitro binding assay for BRD2; conditions: single determination or n ≧ 2 independent determinations, read-out: Biochemical IC50 BRD2
In short: (§1)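 Compounds were serially diluted over eight concentrations and added to wells. TR-FRET signal was then measured.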

[2] = biological target: CREBBP bromodomain (His-CREBBP(1081-1197)) (Homo sapiens (Human), UniProt Q92793); test: AlphaScreen in-vitro binding assay for CREBBP; conditions: single determination or n ≧ 2 independent determinations, read-out: Biochemical IC50 CREBBP
Chain of CREBBP bromodomain (His-CREBBP(1081-1197)) (Q92793 1081-1197): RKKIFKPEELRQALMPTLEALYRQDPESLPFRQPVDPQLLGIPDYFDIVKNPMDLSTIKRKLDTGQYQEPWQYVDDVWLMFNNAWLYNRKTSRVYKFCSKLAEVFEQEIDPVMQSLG
In short: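 Reactions at 30 °C for 35 min, then Ni-chelate acceptor and streptavidin donor beads in HEPES pH 7.5, NaCl, Tween20, BSA, 60 min at room temperature. Eight-point compound series; IC50 by non-linear regression of percent inhibition.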

[3] = biological target: BRD4 (His-Brd4(44-477)) (Homo sapiens (Human), UniProt O60885); test: TR-FRET in-vitro binding assay for BRD4; conditions: single determination or n ≧ 2 independent determinations, read-out: Biochemical IC50 BRD4
In short: as §1

[4] = test system: THP-1 cells; test: Cell growth inhibition assay (CellTiter-Glo), THP-1; conditions: for GI50: Homo sapiens, THP-1, read-out: THP-1 GI50; for THP-1 TGI: THP-1 cells, total growth inhibition, CellTiter-Glo;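 on all read-outs here: viability read as cellular ATP luminescence after 4 days, 3-fold dilution series from 10 µM, DMSO vehicle-treated cells taken as 100%, cell-free medium wells as −100%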
[5] = test system: MV-4-11 cells; test: Cell growth inhibition assay (CellTiter-Glo), MV-4-11; conditions: for GI50: Homo sapiens, MV4-11, read-out: MV-4-11 GI50; for MV-4-11 TGI: MV-4-11 cells, total growth inhibition, CellTiter-Glo;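 on all read-outs here: cellular ATP luminescence after 4 days, 3-fold dilution series from 10 µM top dose, vehicle (0.1% DMSO) set to 100%, cell-free medium set to −100%, day 0 corrected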
[6] = biological target: BRD3 (His-Brd3(20-477)) (Homo sapiens (Human), UniProt Q15059); test: TR-FRET in-vitro binding assay for BRD3; conditions: single determination or n ≧ 2 independent determinations, read-out: Biochemical IC50 BRD3
Chain of BRD3 (His-Brd3(20-477)) (Q15059 20-477): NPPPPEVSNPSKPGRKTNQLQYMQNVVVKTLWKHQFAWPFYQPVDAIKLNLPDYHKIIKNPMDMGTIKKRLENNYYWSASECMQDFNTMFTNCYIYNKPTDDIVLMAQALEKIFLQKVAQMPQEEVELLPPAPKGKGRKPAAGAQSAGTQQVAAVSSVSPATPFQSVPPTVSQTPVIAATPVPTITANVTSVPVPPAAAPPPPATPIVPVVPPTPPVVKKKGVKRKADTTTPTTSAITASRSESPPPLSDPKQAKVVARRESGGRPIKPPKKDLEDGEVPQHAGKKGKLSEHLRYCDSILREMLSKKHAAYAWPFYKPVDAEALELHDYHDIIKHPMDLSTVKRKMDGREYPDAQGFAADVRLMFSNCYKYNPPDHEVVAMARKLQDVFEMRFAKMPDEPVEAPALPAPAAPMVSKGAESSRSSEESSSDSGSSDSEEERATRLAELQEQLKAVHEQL
In short: as §1

[7] = test system: K-562 cells; test: Cell growth inhibition assay (CellTiter-Glo), K-562; conditions: for GI50: Homo sapiens, K562, read-out: K-562 GI50; for K-562 TGI: K-562 cells, total growth inhibition, CellTiter-Glo;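 on all read-outs here: cellular ATP measured by luminescence after 4 days of exposure, 3-fold dilution series from 10 µM, DMSO vehicle-treated cells define 100%, cell-free medium wells −100%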

Chain of BRD2 (His-Brd2(60-472)) (P25440 60-472): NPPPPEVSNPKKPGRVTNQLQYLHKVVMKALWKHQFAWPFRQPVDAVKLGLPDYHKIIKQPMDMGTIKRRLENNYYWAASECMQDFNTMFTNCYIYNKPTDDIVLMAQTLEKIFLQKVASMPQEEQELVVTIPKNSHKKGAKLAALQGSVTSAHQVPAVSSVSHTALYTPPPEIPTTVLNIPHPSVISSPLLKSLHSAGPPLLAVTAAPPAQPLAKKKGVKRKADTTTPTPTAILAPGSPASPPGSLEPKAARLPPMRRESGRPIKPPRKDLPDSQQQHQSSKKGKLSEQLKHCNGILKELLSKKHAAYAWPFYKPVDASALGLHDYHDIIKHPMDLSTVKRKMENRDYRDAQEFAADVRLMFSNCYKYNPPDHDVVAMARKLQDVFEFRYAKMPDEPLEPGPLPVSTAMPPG

Row | SMILES | pIC50 [1] | pIC50 [2] | pIC50 [3] | GI50 [4] | GI50 [5] | pIC50 [6] | GI50 [7] | THP-1 TGI [4] | MV-4-11 TGI [5] | K-562 TGI [7]
1 | Cc1cc(N2C(=O)c3nc(C4CCOCC4)n(C(C)C)c3C2c2ccc(Cl)cc2)cn2c(C)nnc12 (stereo not drawn) [Example 86, 6-(4-chlorophenyl)-5-(3,8-dimethyl-[1,2,4]triazolo[4,3-a]pyridin-6-yl)-1-isopropyl-2-(tetrahydro-2H-pyran-4-yl)-5,6-dihydropyrrolo[3,4-d]imidazol-4(1H)-one] | 7.72 | 5.42 | > 7.96 | 57 nM | 20.8 nM | > 7.96 | 250 nM | 155 nM | 43 nM | >10000 nM
2 | Cc1cc(N2C(=O)c3nc(C4CCOCC4)n(C(C)C)c3[C@H]2c2ccc(Cl)cc2)cn2c(C)nnc12 [Example 87, (R)-6-(4-chlorophenyl)-5-(3,8-dimethyl-[1,2,4]triazolo[4,3-a]pyridin-6-yl)-1-isopropyl-2-(tetrahydro-2H-pyran-4-yl)-5,6-dihydropyrrolo[3,4-d]imidazol-4(1H)-one] | 7.60 | 5.74 | 7.85 | 27.6 nM | 8.54 nM | 7.85 | 166 nM | 79.2 nM | 14.45 nM | >10000 nM
3 | Cc1cc(N2C(=O)c3nc(C4=CCOCC4)n(C(C)C)c3C2c2ccc(Cl)cc2)cn2c(CF)nnc12 (stereo not drawn) [Example 88, 6-(4-chlorophenyl)-2-(3,6-dihydro-2H-pyran-4-yl)-5-(3-(fluoromethyl)-8-methyl-[1,2,4]triazolo[4,3-a]pyridin-6-yl)-1-isopropyl-5,6-dihydropyrrolo[3,4-d]imidazol-4(1H)-one] | 7.12 | 4.82 | 7.41 | 42.8 nM | 23.7 nM | 7.37 | 172 nM | 112.1 nM | 39.85 nM | >10000 nM
4 | COc1ncccc1-c1nc2c(n1C(C)C)C(c1ccc(Cl)cc1)N(c1cc(C)c3nnc(CF)n3c1)C2=O (stereo not drawn) [Example 89, 6-(4-chlorophenyl)-5-(3-(fluoromethyl)-8-methyl-[1,2,4]triazolo[4,3-a]pyridin-6-yl)-1-isopropyl-2-(2-methoxypyridin-3-yl)-5,6-dihydropyrrolo[3,4-d]imidazol-4(1H)-one] | 7.46 | 5.08 | 7.82 | 14.9 nM | 10.3 nM | 7.89 | 63.6 nM | 40.45 nM | 20.8 nM | >10000 nM

Continued, in another order:

Row | pIC50 [1] | pIC50 [2] | pIC50 [3] | GI50 [4] | GI50 [5] | pIC50 [6] | GI50 [7] | SMILES | THP-1 TGI [4] | MV-4-11 TGI [5] | K-562 TGI [7]
5 | 7.17 | 4.88 | 7.52 | 82.8 nM | 16.2 nM | 7.43 | 270 nM | Cc1cc(N2C(=O)c3nc(C4=CC(C)(C)NC(C)(C)C4)n(C(C)C)c3C2c2ccc(Cl)cc2)cn2c(CF)nnc12 (stereo not drawn) [Example 90, 6-(4-chlorophenyl)-5-(3-(fluoromethyl)-8-methyl-[1,2,4]triazolo[4,3-a]pyridin-6-yl)-1-isopropyl-2-(2,2,6,6-tetramethyl-1,2,3,6-tetrahydropyridin-4-yl)-5,6-dihydropyrrolo[3,4-d]imidazol-4(1H)-one] | 271 nM | 31.75 nM | >10000 nM
6 | 7.02 | 4.76 | 7.46 | 122 nM | 27.4 nM | 7.35 | 353 nM | Cc1cc(N2C(=O)c3nc(C4=CCCN(C)C4)n(C(C)C)c3C2c2ccc(Cl)cc2)cn2c(CF)nnc12 (stereo not drawn) [Example 91] | 334 nM | 63.7 nM | >10000 nM
